Laboratory results as given in patent US11737999B2, “Amino acid compositions and methods for the treatment of post-acute sequelae of COVID-19” (AXCELLA HEALTH INC., priority 2021, dated 2023).

Experiments:
IL-6 [1] = assay: LPS-induced IL-6 secretion in primary human monocyte-derived macrophages; settings: for IL-6 Measurements, Mean: LPS, baseline subtracted values
Procollagen Iα1 = Procollagen Iα1 secretion (ELISA) in primary human hepatic stellate cells stimulated with TGFβ1; assay type: cell-based; settings: hepatic stellate cells, three donors
IL-6 [2] = assay: IL-6 cytokine secretion in primary human hepatic stellate cells stimulated with TNFα; assay type: cell-based; settings: hepatic stellate cells, two donors
MCP1/CCL2 = MCP1/CCL2 secretion by ELISA in primary human hepatocytes with FFA + TNFα; assay type: cell-based
Col1a1 = Col1a1 gene expression (RT-qPCR) in primary human hepatic stellate cells stimulated with TGFβ1; assay type: cell-based; settings: for Col1a1 Fold Expression Relative to Control, Mean: single amino acid
MCP-1 = MCP-1 chemokine secretion in primary human hepatic stellate cells stimulated with TNFα; assay type: cell-based; settings: hepatic stellate cells, two donors
TNF-α = assay: LPS-induced TNF-α secretion in primary human monocyte-derived macrophages; settings: for TNF-α Measurements Mean (baseline subtracted): 0.15 ng/mL LPS
[3] = Donor 2, Conc. 749 μM (baseline)
[4] = Donor 2, Conc. 153 μM (baseline)

In the case of N=C(N)NCCC[C@H](N)C(=O)O [Arginine, L-Arginine], the “LPS-induced IL-6 secretion (summary in words)” value (“LPS-induced IL-6 secretion” for short) (IL-6 [1]; Donor 1) is reported as “increased IL-6 secretion”, the “procollagen Iα1 secretion (summary in words)” value (Procollagen Iα1) is reported as “significantly increased procollagen Iα1 secretion in two of three donors” and the “IL-6 secretion (summary in words)” value (IL-6 [2]) is reported as “no significant effect on IL-6 secretion”. The “MCP1/CCL2 secretion (summary in words)” value (MCP1/CCL2; primary human hepatocytes, two healthy donors) was “increased MCP1 secretion”, the “Col1a1 gene expression (summary in words)” value (Col1a1; hepatic stellate cells, three donors) was “did not significantly change Col1a1 gene expression in any donor” and the “Col1a1 Fold Expression Relative to Control, Mean” value (Col1a1; second donor (Table 27), 1088 μM) was 0.99 fold. For the same molecule, the “Col1a1 Fold Expression Relative to Control, Mean” value (Col1a1; second donor (Table 27), 2720 μM) was 1.15 fold, the “Col1a1 Fold Expression Relative to Control, Mean” value (Col1a1; second donor (Table 27), 5440 μM) was 1.15 fold and the “Col1a1 Fold Expression Relative to Control, Mean” value (Col1a1; second donor (Table 29), 1088 μM) was 0.95 fold. For the same molecule, the “Col1a1 Fold Expression Relative to Control, Mean” value (Col1a1; second donor (Table 29), 2720 μM) was 0.99 fold, the “Col1a1 Fold Expression Relative to Control, Mean” value (Col1a1; second donor (Table 29), 5440 μM) was 1.02 fold and the “MCP-1 secretion (summary in words)” value (MCP-1) was “no significant impact on MCP-1 secretion”.

With NC(=O)CC[C@H](N)C(=O)O [Glutamine, L-Glutamine] the “TNF-α Measurements Mean (baseline subtracted)” value (“TNF-α Measurements Mean” for short) (TNF-α; Donor 1, Conc. 3747 μM) was −45.7, the “TNF-α Measurements Mean” value (TNF-α; Donor 1, Conc. 11242 μM) was −65.24 and the “TNF-α Measurements Mean” value (TNF-α; Donor 1, Conc. 22484 μM) was −103.07. For the same molecule, the “LPS-induced TNF-α secretion (summary in words)” value (shortened to “LPS-induced TNF-α secretion”) (TNF-α; Donor 2) was “increased TNF-α secretion”, the “TNF-α Measurements Mean” value (TNF-α; [3]) was −9.5E−15 and the “TNF-α Measurements Mean” value (TNF-α; Donor 2, Conc. 3747 μM) was 9.338. The “TNF-α Measurements Mean” value (TNF-α; Donor 2, Conc. 11242 μM) was 20.04, the “TNF-α Measurements Mean” value (TNF-α; Donor 2, Conc. 22484 μM) was 11.5 and the “LPS-induced TNF-α secretion” value (TNF-α; Donor 3) was “increased TNF-α secretion”. For the same molecule, the “TNF-α Measurements Mean” value (TNF-α; Donor 3, Conc. 749 μM (baseline)) was 0, the “TNF-α Measurements Mean” value (TNF-α; Donor 3, Conc. 3747 μM) was 1.936 and the “TNF-α Measurements Mean” value (TNF-α; Donor 3, Conc. 11242 μM) was 18. The “TNF-α Measurements Mean” value (TNF-α; Donor 3, Conc. 22484 μM) was 29.14, the “LPS-induced IL-6 secretion” value (IL-6 [1]; Donor 1) was “increased IL-6 secretion” and the “IL-6 Measurements, Mean” value (IL-6 [1]; Donor 1, Conc. 749 μM (baseline)) was 0. For the same molecule, the “LPS-induced IL-6 secretion” value (IL-6 [1]; Donor 2) was “increased IL-6 secretion”, the “IL-6 Measurements, Mean” value (IL-6 [1]; [3]) was 2.37E−15 and the “IL-6 Measurements, Mean” value (IL-6 [1]; Donor 2, Conc. 3747 μM) was 22.52. The “IL-6 Measurements, Mean” value (IL-6 [1]; Donor 2, Conc. 11242 μM) was 63.31, the “IL-6 Measurements, Mean” value (IL-6 [1]; Donor 2, Conc. 22484 μM) was 34.39 and the “LPS-induced IL-6 secretion” value (IL-6 [1]; Donor 3) was “significantly increased IL-6 secretion”. The “IL-6 secretion (summary in words)” value (IL-6 [2]) was “significantly reduced IL-6 secretion in both donors”, the “MCP1 expression relative to Control, Mean” value (MCP1/CCL2; Donor 1, Conc. 749 μM) was 0 and the “MCP1 expression relative to Control, Mean” value (MCP1/CCL2; Donor 1, Conc. 3747 μM) was −0.8981. The “MCP1 expression relative to Control, Mean” value (MCP1/CCL2; Donor 1, Conc. 11242 μM) was −9.001, the “MCP1 expression relative to Control, Mean” value (MCP1/CCL2; Donor 1, Conc. 22484 μM) was −21.8392 and the “MCP1 expression relative to Control, Mean” value (MCP1/CCL2; Donor 2, Conc. 749 μM) was 2.84E−14. For the same molecule, the “MCP1 expression relative to Control, Mean” value (MCP1/CCL2; Donor 2, Conc. 3747 μM) was −45.0574, the “MCP1 expression relative to Control, Mean” value (MCP1/CCL2; Donor 2, Conc. 11242 μM) was −90.6558 and the “MCP1 expression relative to Control, Mean” value (MCP1/CCL2; Donor 2, Conc. 22484 μM) was −138.873. The “MCP-1 secretion (summary in words)” value (MCP-1) was “reduced MCP1 secretion in both donors but was only statistically significant in one of two donors”.

In the case of CC(C)C[C@H](N)C(=O)O [Leucine, L-Leucine], the “TNF-α Measurements Mean” value (TNF-α; Donor 1, Conc. 3054 μM) is reported as 42.04, the “TNF-α Measurements Mean” value (TNF-α; Donor 1, Conc. 7635 μM) is reported as −23.04 and the “TNF-α Measurements Mean” value (TNF-α; Donor 1, Conc. 15270 μM) is reported as −46.21. The “LPS-induced TNF-α secretion” value (TNF-α; Donor 2) was “increased TNF-α secretion”, the “TNF-α Measurements Mean” value (TNF-α; [4]) was 0 and the “TNF-α Measurements Mean” value (TNF-α; Donor 2, Conc. 3054 μM) was 31.74. For the same molecule, the “TNF-α Measurements Mean” value (TNF-α; Donor 2, Conc. 7635 μM) was 41.98, the “TNF-α Measurements Mean” value (TNF-α; Donor 2, Conc. 15270 μM) was 46.69 and the “IL-6 Measurements, Mean” value (IL-6 [1]; Donor 1, Conc. 153 μM (baseline)) was 0. For the same molecule, the “LPS-induced IL-6 secretion” value (IL-6 [1]; Donor 2) was “increased IL-6 secretion”, the “IL-6 Measurements, Mean” value (IL-6 [1]; [4]) was 7.11E−15 and the “IL-6 Measurements, Mean” value (IL-6 [1]; Donor 2, Conc. 3054 μM) was 29.61. For the same molecule, the “IL-6 Measurements, Mean” value (IL-6 [1]; Donor 2, Conc. 7635 μM) was 30.46, the “IL-6 Measurements, Mean” value (IL-6 [1]; Donor 2, Conc. 15270 μM) was 47.6 and the “IL-6 secretion (summary in words)” value (IL-6 [2]) was “no significant effect on IL-6 secretion”. For the same molecule, the “MCP1 expression relative to Control, Mean” value (MCP1/CCL2; Donor 1, Conc. 153 μM) was 5.92E−16, the “MCP1 expression relative to Control, Mean” value (MCP1/CCL2; Donor 1, Conc. 3054 μM) was 3.34 and the “MCP1 expression relative to Control, Mean” value (MCP1/CCL2; Donor 1, Conc. 7635 μM) was 1.896. The “MCP1 expression relative to Control, Mean” value (MCP1/CCL2; Donor 1, Conc. 15270 μM) was −1.368, the “MCP1 expression relative to Control, Mean” value (MCP1/CCL2; Donor 2, Conc. 153 μM) was −4.7E−15 and the “MCP1 expression relative to Control, Mean” value (MCP1/CCL2; Donor 2, Conc. 3054 μM) was 16.11. For the same molecule, the “MCP1 expression relative to Control, Mean” value (MCP1/CCL2; Donor 2, Conc. 7635 μM) was −2.988, the “MCP1 expression relative to Control, Mean” value (MCP1/CCL2; Donor 2, Conc. 15270 μM) was −26.6436 and the “MCP-1 secretion (summary in words)” value (MCP-1) was “no significant impact on MCP-1 secretion”.
